Results reported in patent publication US12600716B2 (Gannex Pharma Co., Ltd., priority 2020, dated 2026).

How the values were obtained:
hFXR-LBD-GAL4 = molecular target: T1, hFXR-LBD-GAL4 (Homo sapiens, UniProt Q96RI1); assay: FXR agonist transactivation ability: luciferase reporter gene in HEK293T; type: cell-based; settings: read-out: Cell activity
T1 construct: GAL4 (fusion partner); host or cells: HEK293T
T1 sequence (Q96RI1 262-486 limits assumed): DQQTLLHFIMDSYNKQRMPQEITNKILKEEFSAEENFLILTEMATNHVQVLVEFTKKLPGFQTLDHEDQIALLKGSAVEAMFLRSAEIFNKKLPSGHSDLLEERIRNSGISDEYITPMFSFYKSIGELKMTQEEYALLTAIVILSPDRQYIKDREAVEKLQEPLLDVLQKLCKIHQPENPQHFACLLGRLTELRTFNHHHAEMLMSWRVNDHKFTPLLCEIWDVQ
Protocol: FXR Agonist Transactivation Ability
Evaluation of the ability of the compound of the present invention to promote FXR transactivation was conducted by using luciferase reporter gene expression technology.
• 1. Cell line: HEK293T (Invitrogen) • 2. Expression plasmid: pBIND-hFXR-LBD-GAL4 (Promega), pGL4.35-luciferase (Promega) • 3. Cell culture medium: 10% serum and penicillin/streptomycin double antibody in DMEM medium • 4. Detection reagent: Steady-Glo fluorescence detection system (Promega). • 5. Transfection reagent: TransIT-293 Transfection Reagent (MIRUS BIO)
• 1. The compound was prepared into a 10 mM DMSO stock solution and stored in a −20° C. refrigerator for a long time. • 2. Resuscitation HEK293T cells were seeded in 10 cm culture dishes at a concentration of 5.5×10^6 and incubated for 16 hours at 37° C. in a 5% CO2 incubator. • 3. Return the transfection reagent to room temperature before transfection. The Trans-IT solution was added dropwise to Opti-MEM, and mixed by inversion for 5 minutes; the expression plasmid was added, mixed by inversion, and incubated at room temperature for 20 minutes. • 4. Add the transfection mixture from Step 3 to the prepared 10 cm dish in Step 2 and incubate for 5-6 hours in a 5% CO2 incubator. • 5. Dilute the compound 3 folds to 10 concentration points using DMSO; add 25 nl of compound per well in a 384-well plate using an Echo 550 sonic pipette; add HEK293T cells to the 384-well plate at a concentration of 15,000 cells/well; 37° C. incubate for 16-20 hours in a 5% CO2 incubator. • 6. Add 25 μl of Steady-Glo Fluorescent Reagent to each well and read the fluorescence on an Envision 2104 plate reader. • 7. Calculate the EC50 value of the activation of the compound.

human FXR protein = molecular target: T2, human FXR protein (Homo sapiens, UniProt Q96RI1); assay: FXR agonist binding ability: time-resolved fluorescence (LanthaScreen) FXR/coactivator assay; type: biochemical; settings: GST-labeled human FXR, fluorescein-labeled coactivator, TR-FRET
T2 construct: purchased Invitrogen
Protocol: FXR Agonist Binding Ability Evaluation of the activation effect of the compound of the present invention with regard to the binding of FXR to its co-stimulatory factor SRC-1 was conducted by using time-resolved analytical techniques. Protein: glutathione-S-transferase (GST)-labeled human FXR protein (Invitrogen) • 2. Coactivator: Fluorescein-labeled steroid receptor coactivator (SRC2-2) (Invitrogen) • 3. Detection reagent: LanthaScreen Time-Resolved Fluorescence Analysis Kit (Invitrogen) • 1. The compound was prepared into a 10 mM DMSO stock solution and stored in a −20° C. refrigerator for a long time. • 2. The compound was diluted to 1 mM before the experiment, and then the compound was diluted 3-fold to 10 concentration points using DMSO. Then use buffer G (Invitrogen, PV4553) to dilute these 10 concentration points by 50 times to become a working fluid. Add 10 μl of each working solution to each well of a 384-well plate. • 3. Prepare a human FXR protein solution (final concentration 20 nM) in chilled buffer G and add 5 μl of human FXR protein solution to each well of a 384-well plate. • 4. Prepare a mix of buffer G containing 2 μM fluorescein-labeled steroid receptor coactivator and 20 nM GST antibody. • 5. Add 5 μl of the mixture prepared in Step 4 to a 384-well plate. • 6. Centrifuge the 384-well plate at 1000 g for 1 minute. • 7. Incubate for 1 hour at room temperature in the dark. • 8. Read the 384-well plate at 520 nm and 495 nm on an Envision 2104 plate reader. • 9. Calculate the EC50 value of the activation effect of the compound.

Row | Compound | EC50 (hFXR-LBD-GAL4) | EC50 (human FXR protein)
1 | Cc1nc(Oc2ccc3cc(OCc4c(-c5c(Cl)cccc5Cl)noc4C4CC4)ccc3c2Cl)ccc1C(=O)O [Compound 43, 6-((1-chloro-6-((5-cyclopropyl-3-(2,6-dichlorophenyl)isoxazol-4-yl)methoxy)naphthalen-2-yl)oxy)-2-methylnicotinic acid] | 500 to 1000 nM | 50 to 500 nM
2 | O=C(O)c1ccc(Oc2ccc3cc(OCc4c(-c5ccccc5OC(F)(F)F)noc4C4CC4)ccc3c2)nc1 [Compound 17] | > 1000 nM | > 500 nM
3 | Cc1nc(Oc2ccc3c(F)c(OCc4c(-c5c(Cl)cccc5Cl)noc4C4CC4)ccc3c2)ccc1C(=O)O [Compound 37, 6-((6-((5-cyclopropyl-3-(2,6-dichlorophenyl)isoxazol-4-yl)methoxy)-5-fluoronaphthalen-2-yl)oxy)-2-methylnicotinic acid] | > 1000 nM | 50 to 500 nM
4 | Cc1nc(Oc2cccc3c(F)c(OCc4c(-c5c(Cl)cccc5Cl)noc4C4CC4)ccc23)ccc1C(=O)O [Compound 39, 6-((6-((5-cyclopropyl-3-(2,6-dichlorophenyl)isoxazol-4-yl)methoxy)-5-fluoronaphthalen-1-yl)oxy)-2-methylnicotinic acid] | < 200 nM | < 50 nM
5 | COc1cc(Cl)c(-c2noc(C3CC3)c2COc2ccc3cc(Oc4ccc(C(=O)O)cn4)ccc3c2)c(Cl)c1 [Compound 19, 6-((6-((5-cyclopropyl-3-(2,6-dichloro-4-methoxyphenyl)isoxazol-4-yl)methoxy)naphthalen-2-yl)oxy)nicotinic acid] | > 1000 nM | > 500 nM
6 | O=C(O)c1ccc(Oc2ccc3ccc(OCc4c(-c5c(Cl)cccc5Cl)noc4C4CC4)c(F)c3c2)nc1 [Compound 38, 6-((7-((5-cyclopropyl-3-(2,6-dichlorophenyl)isoxazol-4-yl)methoxy)-8-fluoronaphthalen-2-yl)oxy)nicotinic acid] | 500 to 1000 nM | < 50 nM
7 | O=C(O)c1cccnc1Oc1c(F)ccc2cc(OCc3c(-c4c(Cl)cccc4Cl)noc3C3CC3)ccc12 [Compound 48, 2-((6-((5-cyclopropyl-3-(2,6-dichlorophenyl)isoxazol-4-yl)methoxy)-2-fluoronaphthalen-1-yl)oxy)nicotinic acid] | < 200 nM | < 50 nM
8 | O=C(O)c1ccc(Oc2ccc3cc(OCc4c(-c5c(Cl)cccc5Cl)noc4C4CC4)ccc3c2F)nc1 [Compound 20, 6-((6-((5-cyclopropyl-3-(2,6-dichlorophenyl)isoxazol-4-yl)methoxy)-1-fluoronaphthalen-2-yl)oxy)nicotinic acid] | 500 to 1000 nM | 50 to 500 nM
9 | O=C(O)c1ccc(Oc2c(Cl)cc(Cl)c3cc(OCc4c(-c5c(Cl)cccc5Cl)noc4C4CC4)ccc23)nc1 [Compound 41, 6-((2,4-dichloro-6-((5-cyclopropyl-3-(2,6-dichlorophenyl)isoxazol-4-yl)methoxy)naphthalen-1-yl)oxy)nicotinic acid] | > 1000 nM | > 500 nM
10 | O=C(O)c1cccnc1Oc1cccc2cc(OCc3c(-c4c(Cl)cccc4Cl)noc3C3CC3)ccc12 [Compound 35, 2-((6((5-cyclopropyl-3-(2,6-dichlorophenyl)isoxazol-4-yl)methoxy)naphthalen-1-yl)oxy)nicotinic acid] | < 200 nM | < 50 nM
11 | O=C(O)c1ccc(Oc2c(Cl)ccc3cc(OCc4c(-c5c(Cl)cccc5Cl)noc4C4CC4)ccc23)nc1 [Compound 42, 6-((2-chloro-6-((5-cyclopropyl-3-(2,6-dichlorophenyl)isoxazol-4-yl)methoxy)naphthalen-1-yl)oxy)nicotinic acid] | > 1000 nM | > 500 nM
12 | O=C(O)c1ccc(Oc2c(F)ccc3cc(OCc4c(-c5c(Cl)cccc5Cl)noc4C4CC4)ccc23)nc1 [Compound 30, 6-((6-((5-cyclopropyl-3-(2,6-dichlorophenyl)isoxazol-4-yl)methoxy)-2-fluoronaphthalen-1-yl)oxy)nicotinic acid] | < 200 nM | < 50 nM
13 | O=C(O)c1ccc(Oc2ccc3c(Cl)c(OCc4c(-c5c(Cl)cccc5Cl)noc4C4CC4)ccc3c2)nc1 [Compound 29, 6-((5-chloro-6-((5-cyclopropyl-3-(2,6-dichlorophenyl)-isoxazol-4-yl)methoxy)naphthalen-2-yl)oxy)nicotinic acid] | 500 to 1000 nM | 50 to 500 nM
14 | O=C(O)c1ccc(Oc2ccc3cc(OCc4c(-c5c(Cl)cc(F)cc5Cl)noc4C4CC4)ccc3c2)nc1 [Compound 18] | > 1000 nM | 50 to 500 nM
15 | O=C(NS(=O)(=O)C1CC1)c1ccc(Oc2ccc3cc(OCc4c(-c5c(Cl)cccc5Cl)noc4C4CC4)ccc3c2)nc1 [Compound 6, 6((6((5-cyclopropyl-3-(2,6-dichlorophenyl)isoxazol-4-yl)methoxy)naphthalen-2-yl)oxy)-N-(cyclopropylsulfonyl)nicotinamide] | > 1000 nM | 50 to 500 nM

Other lines, results leading:

Row | EC50 (hFXR-LBD-GAL4) | EC50 (human FXR protein) | Compound
16 | < 200 nM | 50 to 500 nM | O=C(O)c1ccc(Oc2ccc3cc(OCc4c(-c5c(Cl)cccc5Cl)noc4C4CC4)ccc3c2)nc1 [Compound 33]
17 | > 1000 nM | > 500 nM | O=C(O)c1cnc(Oc2ccc3cc(OCc4c(-c5c(Cl)cccc5Cl)noc4C4CC4)ccc3c2)c(Cl)c1 [Compound 3, 5-chloro-6-((6-((5-cyclopropyl-3-(2,6-dichlorophenyl)isoxazol-4-yl)methoxy)naphthalen-2-yl)oxy)nicotinic acid]
18 | > 1000 nM | > 500 nM | O=C(O)c1cnc(Oc2ccc3cc(OCc4c(-c5c(Cl)cccc5Cl)noc4C4CC4)ccc3c2)cn1 [Compound 7, 5-((6-((5-cyclopropyl-3-(2,6-dichlorophenyl)isoxazol-4-yl)methoxy)naphthalen-2-yl)oxy)pyrazine-2-carboxylic acid]
19 | > 1000 nM | 50 to 500 nM | O=C(O)c1ccccc1Oc1ccc2cc(OCc3c(-c4c(Cl)cccc4Cl)noc3C3CC3)ccc2c1 [Compound 14, 2-((6-((5-cyclopropyl-3-(2,6-dichlorophenyl)isoxazol-4-yl)methoxy)naphthalen-2-yl)oxy)benzoic acid]
20 | > 1000 nM | 50 to 500 nM | O=C(O)c1ccc(Oc2ccc3cc(OCc4c(-c5c(Cl)cccc5Cl)noc4C4CC4)ccc3c2)cn1 [Compound 9, 5-((6-((5-cyclopropyl-3-(2,6-dichlorophenyl)isoxazol-4-yl)methoxy)naphthalen-2-yl)oxy)picolinic acid]
21 | > 1000 nM | 50 to 500 nM | O=C(O)c1cnc(Oc2ccc3cc(OCc4c(-c5c(Cl)cccc5Cl)noc4C4CC4)ccc3c2)s1 [Compound 4, 2-((6-((5-cyclopropyl-3-(2,6-dichlorophenyl)isoxazol-4-yl)methoxy)naphthalen-2-yl)oxy)thiazole-5-carboxylic acid]
22 | < 200 nM | 50 to 500 nM | Cc1nc(Oc2c(Cl)ccc3cc(OCc4c(-c5c(Cl)cccc5Cl)noc4C4CC4)ccc23)ccc1C(=O)O [Compound 46, 6((2-chloro-6 ((5-cyclopropyl-3-(2,6-dichlorophenyl)isoxazol-4-yl)methoxy)naphthalen-1-yl)oxy)-2-methylnicotinic acid]
23 | 500 to 1000 nM | 50 to 500 nM | O=C(O)c1ccc(Oc2ccc3cc(OCc4c(-c5c(Cl)cccc5Cl)noc4C4CC4)ccc3c2)nc1Cl [Compound 8, 2-chloro-6-((6-((5-cyclopropyl-3-(2,6-dichlorophenyl)isoxazol-4-yl)methoxy)naphthalen-2-yl)oxy)nicotinic acid]
